Experimental data taken from patent publication US6696433B2, “Use of sex steroids function modulators to treat wounds and fibrotic disorders” (Renovo Limited, priority 1996, dated 2004).
Marks after values point to notes of the source that are not given here.

Assays:
[1] = test system: 4 mm punch biopsy wounds of the upper inner arm; experiment: Topical oestrogen patch clinical trial of wound healing in elderly men and women; assay type: in vivo, human; parameters: key to Collagen Quantities: +=minimal quantities; ++=less than normal skin; +++=similar to normal skin; ++++=greater than normal skin; conditions: for Collagen Quantities: oestradiol patch, DAY 7; for % Rate of re-epithelialisation / Wound area: day 7 post-wounding; for scarring, microscopically and macroscopically (FIGS. 7 and 8): scored as in 2.1.4.2
Procedure: Approval for this study was given by the local Ethics Committee. Forty health-status defined volunteers split into four groups: (i) GROUP 3A comprised ten women with mean age 76.3 yr (Sd 5.6) who received oestrogen supplements (25 μg/24 hrs of oestradiol) (ii) GROUP 3B comprised ten women with mean age 72.5 yr (Sd 7.1) who received placebo instead of oestrogen. (iii) GROUP 3C comprised ten men with mean age 69.6 yr (Sd 3.6) who received oestrogen supplements (ii) GROUP 3D comprised ten men with mean age 71.8 yr (Sd 8.9) who received placebo instead of oestrogen. After informed consent subjects from each of Groups 3A, 3B, 3C and 3D underwent two 4 mm punch biopsies from the upper inner arm (a non sun-exposed site) following local infiltration with 1 ml 1% lignocaine. Each biopsy of normal skin was bisected and one-half embedded in Optimal Cutting Temperature compound (Miles Inc. Elkhart, Ind.), frozen over liquid nitrogen, and stored at −70° C., and one-half snap-frozen in liquid nitrogen and stored at −70° C. The area for biopsy was covered by a 2×3 cm patch (placebo Groups 3B and 3D or active oestradiol 3A and 3C) through which the biopsies were made. The patch was covered by a Multisorb dry gauze dressing (Smith & Nephew) and both were removed after 24 hrs. The active patches contained sufficient oestradiol such that the wound sites were exposed to 25 μg/24 hrs of oestradiol. Five subjects from Groups 3A, 3B, 3C and 3D underwent re-excision of the wounds at day 7 post-wounding, and the other five subjects from each group at day 84 post-wounding. The left upper inner arm was cleaned with isopropyl alcohol, elliptical excisions of the wounds were made following 1% lignocaine infiltration and two sutures were used to close the gap. Each wound was bisected and processed as described above (3.1.3). 7 μm paraffin-embedded sections were strained with H&E and Masson's Trichrome. The rate of re-epithelialisation (at day 7 post-wounding), and wound sizes as determined by planimetry, were determined with image analysis using an Olympus Vanox camera and PC image capture system. Collagen quantity within the wound was determined by two observers blinded to the identity of the specimen on the following scale +=minimal quantities; ++=less than normal skin; +++=similar to normal skin; ++++=greater than normal skin. The wound stiffness at day 80 was determined using the non-disruptive Dimensional Analysis System (Das). Previous studies have correlated wound breaking strength values (ultimate pressure at failure) to wound stiffness using this system. The system applies a multiaxial load (negative pressure) to the wound and measures the deformation due to the load of two reflective targets placed at the wound edges, using a high resolution camera and video processor. Pressure was applied to a maximum of 100 mmHg and then released, Stiffness was measured between 20 and 80 mmHg.

Human dermal fibroblasts = experiment: Fibroblast proliferation, [3H] thymidine incorporation; assay type: cell-based; conditions: for proliferation of fibroblasts: doses 1 pM to 1 mM, 24 hrs, fibroblasts from young and aged subjects, compared to cyclodextrin controls
Procedure: (§1) Human dermal fibroblasts were explanted from the 4 mm punch biopsy specimens of normal skin. Fibroblasts used in the study were cultured at 37° C. in 95% air; 5% CO2 at 100% relative humidity, in phenol red-free DMEM (Gibco), 100 U/ml penicillin, […], 1 mM sodium pyruvate, 2 mM L-glutamine, non-essential amino acids and charcoal-stripped 10% FCS (Gibco, UK) (to remove endogenous steroids).
(§2) Cultured cells at passage 3-5 were seeded overnight in 24-well plates at a density of 2×10^5 cells per well in serum free media. The following morning oestrogen or progesterone (made soluble by the incorporation of the carrier cyclodextrin; Sigma, Poole), ranging from 1 pM to 1 mM doses, were added to the medium for 24 hrs. All samples were assessed in triplicate. The media was removed after the 24 hr incubation. 1 mg/ml of aprotinin, leupeptin and pepstatin A was then added to the media which was used immediately in a TGF-β assay (see below). Controls included cyclodextrin at the appropriate concentration, and serum-free medium alone.
The cells were then incubated with [^3H] thymidine in serum-free medium (0.5 μCi/well) to assess the effect of oestrogen or progesterone on fibroblast proliferation. After 24 hrs, the thymidine solution was aspirated and replaced by 10% TCA for 4 hrs at 4° C. The TCA was replaced by 250 μls 1M NaOH solution for 18 hrs. Two 100 μl aliquots from each well were measured for radioactivity in a scintillation counter. In parallel experiments, the effect of hormones/controls on protein synthesis was investigated by the addition of 20 μg/ml cycloheximde (to inhibit protein translation) for 15 mins prior to the 24 hr incubation period.

TGF-β1 mRNA = experiment: Dermal fibroblast TGF-β1 mRNA levels by quantitative RT-PCR; assay type: cell-based, human
Procedure: as §1, §2
Quantitative RT-PCR was used to determine the steady-state levels of TGF-β1 mRNA in the acute wound and in 10^5 cells from the fibroblast in vitro studies (2.1.5) Cellular RNA was isolated from specimens using the method of Chomcynski and Sacchi (Anal, Biochem, 162 p156-159 (1987)). Purity of extraction was assessed using the A260/280 ratio spectrophotometrically, which in all cases was above 1.75. […] Quantitative RT-PCR was performed as described by Tarnuzzer et al. (Biotechniques 20 p670-674 (1996)) Briefly, the reverse transcriptase reaction was carried out using 8 decreasing dilutions of template with 1 μg of authentic cellular RNA. β-actin was used as a positive control. PCR reactions were carried out on the reverse transcription reaction. Electrophoresis was then carried out on a 2% agarose gel containing […] ethidium bromide at 100 v for 1 hr using an Electro 4 tank (Hybaid, Teddington, UK) and photographed using a dual intensity transilluminator (Genetic Research instrumentation, Dunmow (UK) with a Polaroid MP 4+ camera and 665 Polaroid Black and White film, Photographic images were captured using a PC Image Software system (Foster Finley, Newcastle, UK) on a 486 DX2 Dan computer (Dan, UK) and a CCD camera (Swift, UK). The band intensities were determined by image analysis using a Macintosh computer and NIH software programme. Band intensity values were normalised based on the molecular weights of the products. The log of the ratio of band intensities within each lane was plotted against the log of the copy number of template added per reaction. Quantities of target messages were determined where the ratio of template and target band intensities were equal to 1. Copy numbers were expressed per total RNA (for wound tissue) or expressed per cell (for in vitro studies). The latter were calculated by assuming 26 pg RNA/cell.

[2] = FEMALES (3A), patch 25 μg/24 hrs of oestradiol for 24 hrs
[3] = MALES (3C), patch 25 μg/24 hrs of oestradiol for 24 hrs
[4] = OLD person (2A or 2B) fibroblasts, mM dose
[5] = OLD person (2A or 2B) fibroblasts, nM dose
[6] = OLD person (2A or 2B) fibroblasts, pM dose
[7] = OLD person (2A or 2B) fibroblasts, μM dose
[8] = YOUNG person (2C) fibroblasts, mM dose
[9] = YOUNG person (2C) fibroblasts, nM dose
[10] = YOUNG person (2C) fibroblasts, pM dose
[11] = YOUNG person (2C) fibroblasts, μM dose

| Structure (SMILES) | scarring, microscopically and macroscopically (FIGS. 7 and 8) [1] | proliferation of fibroblasts (Human dermal fibroblasts) | TGF-beta mRNA LEVELS (TGF-β1 mRNA; [4]) [copies/cell] | TGF-beta mRNA LEVELS (TGF-β1 mRNA; [5]) [copies/cell] | TGF-beta mRNA LEVELS (TGF-β1 mRNA; [6]) [copies/cell] | TGF-beta mRNA LEVELS (TGF-β1 mRNA; [7]) [copies/cell] | TGF-beta mRNA LEVELS (TGF-β1 mRNA; [8]) [copies/cell] | TGF-beta mRNA LEVELS (TGF-β1 mRNA; [9]) [copies/cell] | TGF-beta mRNA LEVELS (TGF-β1 mRNA; [10]) [copies/cell] | TGF-beta mRNA LEVELS (TGF-β1 mRNA; [11]) [copies/cell] | further results |
| --- | --- | --- | --- | --- | --- | --- | --- | --- | --- | --- | --- |
| C[C@]12CC[C@@H]3c4ccc(O)cc4CC[C@H]3[C@@H]1CC[C@@H]2O [Oestrogen] | inferior quality of wound | inhibited | 990 ± 325 | 1100 ± 370 | 1155 ± 215 | 1100 ± 235 | 1250 ± 188 | 1300 ± 272 | 1190 ± 300 | 1180 ± 130 | Collagen Quantities ([1]; FEMALES (3A)): ++; % Rate of re-epithelialisation [1, 2]: 74.5 (10.5)* %; Wound area [1, 2]: 1204 (49)*; Collagen Quantities ([1]; MALES (3C)): ++; % Rate of re-epithelialisation [1, 3]: 62.5 (21.7) %; Wound area [1, 3]: 1173 (61)*; Wound area ([1]; oestrogen treatment, p<0.05): significantly reduced; Wound stiffness (Dimensional Analysis System) ([1]; day 80 post-wounding): not affected; rate of re-epithelialization ([1]; female (3A) and male subjects (3C) relative to placebo controls): accelerated; TGF-β1 mRNA levels, control versus treated fibroblasts (TGF-β1 mRNA; varying concentrations of oestrogen, fibroblasts from all females regardless of age): No significant differences |
| CC(=O)[C@H]1CC[C@H]2[C@@H]3CCC4=CC(=O)CC[C@]4(C)[C@H]3CC[C@]12C [Progesterone, progesterone] | superior scaring | inhibited | 1300 ± 430 | 1000 ± 275 | 950 ± 210 | 1110 ± 290 | 1100 ± 310 | 1145 ± 206 | 1130 ± 254 | 1090 ± 280 | degree of inhibition of fibroblast proliferation relative to oestrogen (Human dermal fibroblasts; at 1 mM, p<0.05): significantly greater degree than oestrogen |
